# Active and inactive are the calls of the source. The calls are words filed in the database; no cut-off is given here. Where a SMILES comes first, the peptide text is derived from it. [ ]: non-standard residue; d: D form. Orn = NCCC[C@H](N)C(=O)O
# How the values were obtained:
# Staphylococcus aureus [1] = test: Antibacterial activity against Staphylococcus aureus ATCC 29213 assessed as inhibition of bacterial growth incubated for 18 to 24 hrs by broth microdilution assay; assay type: functional; conditions: time 18-24 hrs
# Staphylococcus aureus [2] = test: Antibacterial activity against methicillin-resistant Staphylococcus aureus 2 assessed as inhibition of bacterial growth incubated for 18 to 24 hrs by broth microdilution assay; assay type: functional; conditions: time 18-24 hrs
# Staphylococcus aureus [3] = test: Antibacterial activity against Staphylococcus aureus SH-27 assessed as inhibition of bacterial growth incubated for 18 to 24 hrs by broth microdilution assay; assay type: functional; conditions: time 18-24 hrs
# Staphylococcus aureus [4] = test: Antibacterial activity Staphylococcus aureus ATCC 29213 infected BALB/c mouse assessed as reduction in bacterial burden at 15 mg/kg,iv measured on day 1 and 3 after infection; assay type: functional, organism-based
# Escherichia coli = test: Antibacterial activity against Escherichia coli ATCC 25922 assessed as inhibition of bacterial growth incubated for 18 to 24 hrs by broth microdilution assay; assay type: functional; conditions: time 18-24 hrs
# Staphylococcus aureus [5] = test: Antibacterial activity against Staphylococcus aureus ATCC 29213 assessed as separation of plasma wall at 5 x MIC incubated for 2 hrs by transmission electron microscopy analysis; assay type: functional, organism-based
# Staphylococcus aureus [6] = test: Antibacterial activity against methicillin-resistant Staphylococcus aureus 2 assessed as cell wall loosening at 5 x MIC incubated for 2 hrs by transmission electron microscopy analysis; assay type: functional, organism-based
# Cell membrane [7] = test: Induction of cell membrane disruption in Staphylococcus aureus ATCC 29213 assessed as increase in protein leakage at 5 x MIC incubated for 2 hrs by coomassie brilliant blue dye assay; assay type: subcellular
# Cell membrane [8] = test: Induction of cell membrane disruption in methicillin-resistant Staphylococcus aureus 2 assessed as increase in protein leakage at 5 x MIC incubated for 2 hrs by coomassie brilliant blue dye assay; assay type: subcellular
# Staphylococcus aureus [9] = test: Antibacterial activity against Staphylococcus aureus ATCC 29213 assessed as blurred space in cytoplasm and cell wall at 5 x MIC incubated for 2 hrs by transmission electron microscopy analysis; assay type: functional, organism-based
# Staphylococcus aureus [10] = test: Antibacterial activity against methicillin-resistant Staphylococcus aureus 2 assessed as appearance of cell round pellet at 5 x MIC incubated for 2 hrs by transmission electron microscopy analysis; assay type: functional, organism-based
# Staphylococcus aureus [11] = test: Antibacterial activity against methicillin-resistant Staphylococcus aureus 2 assessed as blurred space in cytoplasm and cell wall at 5 x MIC incubated for 2 hrs by transmission electron microscopy analysis; assay type: functional, organism-based
# Staphylococcus aureus [12] = test: Antibacterial activity against methicillin-resistant Staphylococcus aureus 2 assessed as separation of plasma wall at 5 x MIC incubated for 2 hrs by transmission electron microscopy analysis; assay type: functional, organism-based
# Staphylococcus aureus [13] = test: Antibacterial activity against Staphylococcus aureus ATCC 29213 assessed as appearance of cell round pellet at 5 x MIC incubated for 2 hrs by transmission electron microscopy analysis; assay type: functional, organism-based
# Staphylococcus aureus [14] = test: Antibacterial activity against Staphylococcus aureus ATCC 29213 assessed as cell wall loosening at 5 x MIC incubated for 2 hrs by transmission electron microscopy analysis; assay type: functional, organism-based
# Staphylococcus aureus [15] = test: Antibacterial activity Staphylococcus aureus ATCC 29213 infected BALB/c mouse assessed as reduction in bacterial burden at 50 to 100 mg/kg,iv measured on day 1 and 3 after infection; assay type: functional, organism-based; conditions: dose 50-100 mg/kg
# Staphylococcus aureus [16] = test: Inhibition of biofilm formation in methicillin-resistant Staphylococcus aureus 2 at 4 to 16 microg/ml incubated for 18 to 24 hrs by crystal violet staining based assay; assay type: functional, organism-based; conditions: dose 4-16 µg/ml, time 18-24 hrs
# Staphylococcus aureus [17] = test: Inhibition of biofilm formation in methicillin-resistant Staphylococcus aureus 2 at 1 times MIC incubated for 18 to 24 hrs by crystal violet staining based assay; assay type: functional; conditions: time 18-24 hrs
# Staphylococcus aureus [18] = test: Antibacterial activity Staphylococcus aureus ATCC 29213 infected BALB/c mouse assessed as increase in skin thickness at 50 to 100 mg/kg,iv measured on day 1 and 3 after infection by hematoxylin and eosin staining based assay; assay type: functional, organism-based; conditions: dose 50-100 mg/kg
# Staphylococcus aureus [19] = test: Bactericidal activity against methicillin-resistant Staphylococcus aureus 2 assessed as reduction in colony forming unit at 1 to 8 times MIC incubated for 18 to 24 hrs by time kill assay; assay type: functional, organism-based; conditions: time 18-24 hrs
# [20] = Cytotoxicity against human L02 cells assessed as reduction in cell viability incubated for 72 hrs by CCK-8 assay; assay type: toxicity, cell-based
# Cell membrane [21] = test: Induction of membrane depolarization in Staphylococcus aureus ATCC 29213 at 5 x MIC incubated for 2 hrs by DiOC23 dye based based flow cytometry; assay type: subcellular
# Staphylococcus aureus [22] = test: Antibacterial activity against Staphylococcus aureus ATCC 43300 assessed as inhibition of bacterial growth incubated for 18 to 24 hrs by broth microdilution assay; assay type: functional; conditions: time 18-24 hrs
# Staphylococcus aureus [23] = test: Bactericidal activity against Staphylococcus aureus ATCC 29213 assessed as reduction in colony forming unit at 1 to 8 times MIC incubated for 18 to 24 hrs by time kill assay; assay type: functional, organism-based; conditions: time 18-24 hrs
# Staphylococcus aureus [24] = test: Bactericidal activity against methicillin-resistant Staphylococcus aureus 2 assessed as reduction in colony forming unit at 4 times MIC measured after 4 hrs by time kill assay; assay type: functional
# [25] = Hemolytic activity in rabbit RBC assessed as hemolysis incubated for 1 hr by microtiter plate method; assay type: toxicity, cell-based, Oryctolagus cuniculus, Erythrocyte; conditions: red blood cells
# Staphylococcus aureus [26] = test: Antibacterial activity against Staphylococcus aureus ATCC 33591 assessed as inhibition of bacterial growth incubated for 18 to 24 hrs by broth microdilution assay; assay type: functional; conditions: time 18-24 hrs
# Staphylococcus aureus [27] = test: Antibacterial activity against Staphylococcus aureus ATCC 29213 assessed as appearance of circular vesicles at 5 x MIC incubated for 2 hrs by transmission electron microscopy analysis; assay type: functional, organism-based
# Staphylococcus aureus [28] = test: Antibacterial activity Staphylococcus aureus ATCC 29213 infected BALB/c mouse assessed as decrease in degree of lesion at 50 to 100 mg/kg,iv measured on day 1 and 3 after infection by hematoxylin and eosin staining based assay; assay type: functional, organism-based; conditions: dose 50-100 mg/kg
# Cell membrane [29] = test: Induction of cell membrane permeability in methicillin-resistant Staphylococcus aureus 2 at 5 x MIC incubated for 2 hrs by TO-PRO-3 reagent flow cytometry assay; assay type: subcellular
# Staphylococcus aureus [30] = test: Inhibition of biofilm formation in Staphylococcus aureus ATCC 29213 at 1 times MIC incubated for 18 to 24 hrs by crystal violet staining based assay; assay type: functional; conditions: time 18-24 hrs
# Staphylococcus aureus [31] = test: Antibacterial activity against methicillin-resistant Staphylococcus aureus 2 assessed as appearance of circular vesicles at 5 x MIC incubated for 2 hrs by transmission electron microscopy analysis; assay type: functional, organism-based
# Cell membrane [32] = test: Induction of cell membrane disruption in Staphylococcus aureus ATCC 29213 assessed as increase in intracellular vanomycin content at 10 x MIC incubated for 2 hrs by UPLC analysis
# Staphylococcus aureus [33] = test: Antibacterial activity Staphylococcus aureus ATCC 29213 infected BALB/c mouse assessed as decrease in volume of skin abscess at 50 to 100 mg/kg,iv measured on day 1 and 3 after infection; assay type: functional, organism-based; conditions: dose 50-100 mg/kg
# Salmonella enteritidis = test: Antibacterial activity against Salmonella enteritidis SM012 assessed as inhibition of bacterial growth incubated for 18 to 24 hrs by broth microdilution assay; assay type: functional, Salmonella enterica subsp. enterica serovar Enteritidis; conditions: Salmonella enterica, time 18-24 hrs
# Staphylococcus aureus [34] = test: Bactericidal activity against Staphylococcus aureus ATCC 29213 assessed as reduction in colony forming unit at 4 times MIC measured after 4 hrs by time kill assay; assay type: functional
# Staphylococcus aureus [35] = test: Induction of drug resistance in Staphylococcus aureus ATCC 29213 assessed as fold increase in MIC measured after 20 passage; assay type: functional
# Staphylococcus aureus [36] = test: Antibacterial activity Staphylococcus aureus ATCC 29213 infected BALB/c mouse assessed as IL-1beta cytokine level at 50 to 100 mg/kg,iv measured on day 1 and 3 after infection; assay type: functional, organism-based; conditions: dose 50-100 mg/kg
# Staphylococcus aureus [37] = test: Inhibition of biofilm formation in Staphylococcus aureus ATCC 29213 at 4 to 16 microg/ml incubated for 18 to 24 hrs by crystal violet staining based assay; assay type: functional, organism-based; conditions: dose 4-16 µg/ml, time 18-24 hrs
# Cell membrane [38] = test: Disruption of membrane integrity in Staphylococcus aureus ATCC 29213 assessed as cell membrane damage at 5 x MIC incubated for 2 hrs by DAPI staining based assay
# A549 = test: Cytotoxicity against human A549 cells assessed as reduction in cell viability at 25 ug/ml incubated for 72 hrs by CCK-8 assay; assay type: toxicity, cell-based; conditions: a549, 72 h, dose 25 µg/ml
# Staphylococcus aureus [39] = test: Antibacterial activity Staphylococcus aureus ATCC 29213 infected BALB/c mouse assessed as TNF-alpha cytokine level at 50 to 100 mg/kg,iv measured on day 1 and 3 after infection; assay type: functional, organism-based; conditions: dose 50-100 mg/kg
# Cell membrane [40] = test: Disruption of membrane integrity in Staphylococcus aureus ATCC 29213 assessed as cell membrane damage at 5 x MIC incubated for 2 hrs by propidium iodide staining based assay; assay type: subcellular
# Cell membrane [41] = test: Induction of cell membrane permeability in Staphylococcus aureus ATCC 29213 at 5 x MIC incubated for 2 hrs by TO-PRO-3 reagent flow cytometry assay; assay type: subcellular
# Cell membrane [42] = test: Induction of membrane depolarization in methicillin-resistant Staphylococcus aureus 2 at 5 x MIC incubated for 2 hrs by DiOC23 dye based based flow cytometry; assay type: subcellular
compound,measurement,setting,value
CCN1CCN(c2cc3c(cc2F)c(=O)c(C(=O)O)cn3C2CC2)CC1 [ENROFLOXACIN],MIC,Staphylococcus aureus [1],0.06 µg/mL
same,MIC,Staphylococcus aureus [2],32 µg/mL
same,MIC,Staphylococcus aureus [3],128 µg/mL
same,Activity,Staphylococcus aureus [4],Active
same,MIC,Escherichia coli,0.0156 µg/mL
CC(C)C[C@@H]1NC(=O)[C@H](CCCN)NC(=O)[C@H](C(C)C)NC(=O)[C@@H]2CCCN2C(=O)[C@@H](Cc2ccccc2)NC(=O)[C@H](CC(C)C)NC(=O)[C@H](CCCN)NC(=O)[C@H](C(C)C)NC(=O)[C@@H]2CCCN2C(=O)[C@@H](Cc2ccccc2)NC1=O (cyclo(V[Orn]L[dF]PV[Orn]L[dF]P)),Activity,Staphylococcus aureus [5],Active
same,Activity,Staphylococcus aureus [6],Active
same,Activity,Cell membrane [7],Active
same,Activity,Cell membrane [8],Active
same,Activity,Staphylococcus aureus [9],Active
same,Activity,Staphylococcus aureus [10],Active
same,Activity,Staphylococcus aureus [11],Active
same,Activity,Staphylococcus aureus [12],Active
same,Activity,Staphylococcus aureus [13],Active
same,Activity,Staphylococcus aureus [14],Active
COc1c(O)cc2oc3cc(O)c(CC=C(C)C)c(OC(C)=O)c3c(=O)c2c1CC=C(C)C,Activity,Staphylococcus aureus [15],Active
same,inhibition,Staphylococcus aureus [16],Dose-Dependent Effect
same,inhibition (INH),Staphylococcus aureus [17],98%
same,Activity,Staphylococcus aureus [18],Active
same,Activity,Staphylococcus aureus [19],Active
same,Activity,Staphylococcus aureus [5],Active
same,Activity,Staphylococcus aureus [6],Active
same,MIC,Staphylococcus aureus [1],4 µg/mL
same,IC50 at 72 h,[20],22.1 µg/mL
same,Activity,Cell membrane [21],Active
same,MIC,Staphylococcus aureus [22],1 µg/mL
same,MIC,Staphylococcus aureus [2],4 µg/mL
same,Activity,Staphylococcus aureus [23],Active
same,Activity,Cell membrane [7],Active
same,Activity,Staphylococcus aureus [24],3.72 log10CFU
same,HC50 at 1 h,[25],6.3 µg/mL
same,MIC,Staphylococcus aureus [26],1 µg/mL
same,Activity,Cell membrane [8],Active
same,Activity,Staphylococcus aureus [27],Active
same,MIC,Staphylococcus aureus [3],2 µg/mL
same,Activity,Staphylococcus aureus [28],Active
same,Activity,Cell membrane [29],100%
same,inhibition (INH),Staphylococcus aureus [30],90%
same,Activity,Staphylococcus aureus [31],Active
same,Activity,Cell membrane [32],Active
same,Activity,Staphylococcus aureus [33],Dose-Dependent Effect
same,MIC,Salmonella enteritidis,> 256 µg/mL
same,Activity,Staphylococcus aureus [34],4.57 log10CFU
same,Activity,Staphylococcus aureus [35],inactive
same,Activity,Staphylococcus aureus [36],Active
same,Activity,Staphylococcus aureus [9],Active
same,inhibition,Staphylococcus aureus [37],Dose-Dependent Effect
same,Activity,Cell membrane [38],Active
same,Activity,A549,Non-Toxic
same,Activity,Staphylococcus aureus [39],Active
same,Activity,Staphylococcus aureus [11],Active
same,Activity,Cell membrane [40],Active
same,Activity,Staphylococcus aureus [12],Active
same,Activity,Staphylococcus aureus [14],Active
same,Activity,Cell membrane [41],100%
same,MIC,Escherichia coli,> 256 µg/mL
same,Activity,Cell membrane [42],Active
